According to ChEMBL document CHEMBL5113415, “Synthesis of 10,10'-bis(trifluoromethyl) marinopyrrole A derivatives and evaluation of their antiviral activities in vitro” (Eur J Med Chem, 2022):

Legend:
[1] = Selectivity index, ratio of CC50 for […] to IC50 for JEV-SA14 infected in […]; assay type: toxicity, cell-based; settings: read-out: Ratio CC50/IC50
[2] = Cytotoxicity against human RD cells infected with EV71 incubated for 3 days by CellTiter 96 luminescent cell viability assay; assay type: toxicity, cell-based; settings: time 3 day
[3] = tested on: Japanese encephalitis virus; experiment: Antiviral activity against JEV-SA14 infected in […] incubated for 7 days by CellTiter 96 luminescent cell viability assay; assay type: functional, organism-based; settings: 168 h
[4] = Cytotoxicity against […] infected with ZIKV-SMGC-1 incubated for 7 days by CellTiter 96 luminescent cell viability assay; assay type: toxicity, cell-based; settings: time 7 day
[5] = Selectivity index, ratio of CC50 for human RD cells to IC50 for EV71 infected in human RD cells; assay type: toxicity, cell-based; settings: read-out: Ratio CC50/IC50
[6] = Cytotoxicity against human RD cells infected with CA16 incubated for 3 days by CellTiter 96 luminescent cell viability assay; assay type: toxicity, cell-based; settings: time 3 day
[7] = Selectivity index, ratio of CC50 for human RD cells to IC50 for CA16 infected in human RD cells; assay type: toxicity, cell-based; settings: read-out: Ratio CC50/IC50
[8] = Cytotoxicity against […] infected with JEV-SA14 incubated for 7 days by CellTiter 96 luminescent cell viability assay; assay type: toxicity, cell-based; settings: time 7 day
Coxsackievirus A16 = experiment: Antiviral activity against CA16 infected in human RD cells incubated for 3 days by CellTiter 96 luminescent cell viability assay; assay type: functional, organism-based; settings: Enterovirus A, 72 h
Enterovirus A71 = experiment: Antiviral activity against EV71 infected in human RD cells incubated for 3 days by CellTiter 96 luminescent cell viability assay; assay type: functional, organism-based; settings: Enterovirus A, 71, RD, 72 h
[9] = Cytotoxicity against human RD cells infected with CA6 incubated for 3 days by CellTiter 96 luminescent cell viability assay; assay type: toxicity, cell-based; settings: time 3 day
Coxsackievirus = experiment: Antiviral activity against CA6 infected in human RD cells incubated for 3 days by CellTiter 96 luminescent cell viability assay; assay type: functional, organism-based; settings: A6, RD, 72 h
[10] = Selectivity index, ratio of CC50 for human RD cells to IC50 for CA6 infected in human RD cells; assay type: toxicity, cell-based; settings: read-out: Ratio CC50/IC50
Yellow fever virus = experiment: Antiviral activity against YFV-17D infected in […] incubated for 7 days by CellTiter 96 luminescent cell viability assay; assay type: functional, organism-based; settings: 168 h
[11] = Selectivity index, ratio of CC50 for […] to IC50 for YFV-17D infected in […]; assay type: toxicity, cell-based; settings: read-out: Ratio CC50/IC50
[12] = Cytotoxicity against […] infected with YFV-17D incubated for 7 days by CellTiter 96 luminescent cell viability assay; assay type: toxicity, cell-based; settings: time 7 day
Zika virus = experiment: Antiviral activity against ZIKV-SMGC-1 infected in […] incubated for 7 days by CellTiter 96 luminescent cell viability assay; assay type: functional, organism-based; settings: SMGC-1, BHK, 168 h
[13] = Cytotoxicity against […] infected with DENV-NGC-1 incubated for 7 days by CellTiter 96 luminescent cell viability assay; assay type: toxicity, cell-based; settings: time 7 day
[14] = Selectivity index, ratio of CC50 for […] to IC50 for ZIKV-SMGC-1 infected in […]; assay type: toxicity, cell-based; settings: read-out: Ratio CC50/IC50
[15] = Selectivity index, ratio of CC50 for […] to IC50 for DENV-NGC infected in […]; assay type: toxicity, cell-based; settings: read-out: Ratio CC50/IC50
Dengue virus = experiment: Antiviral activity against DENV-NGC-1 infected in […] incubated for 7 days by CellTiter 96 luminescent cell viability assay; assay type: functional, organism-based; settings: NGC-1, BHK, 168 h

O=C(c1ccc(C(F)(F)F)cc1O)c1[nH]c(Cl)c(Cl)c1-n1c(C(=O)c2ccc(C(F)(F)F)cc2O)cc(Cl)c1SCc1ccccn1
selectivity ratio [1]: 0.61 | CC50 at 72 h [2]: 240 nM | IC50 [3]: 420 nM | CC50 at 168 h [4]: 320 nM | selectivity ratio [5]: 1.43 | CC50 at 72 h [6]: 340 nM | selectivity ratio [7]: 11.5 | CC50 at 168 h [8]: 260 nM | IC50 (Coxsackievirus A16): 30 nM | IC50 (Enterovirus A71): 170 nM | CC50 at 72 h [9]: 340 nM | IC50 (Coxsackievirus): 190 nM | selectivity ratio [10]: 1.8

O=C(c1ccc(C(F)(F)F)cc1O)c1[nH]c(Cl)c(Cl)c1-n1c(C(=O)c2ccc(C(F)(F)F)cc2O)cc(Cl)c1Sc1cccs1
selectivity ratio [1]: 4.59 | CC50 at 72 h [2]: 80 nM | IC50 [3]: 50 nM | IC50 (Yellow fever virus): 50 nM | selectivity ratio [5]: 4 | CC50 at 72 h [6]: 110 nM | selectivity ratio [7]: 12.2 | CC50 at 168 h [8]: 230 nM | IC50 (Coxsackievirus A16): 10 nM | IC50 (Enterovirus A71): 20 nM | CC50 at 72 h [9]: 110 nM | IC50 (Coxsackievirus): 30 nM | selectivity ratio [11]: 4.6 | CC50 at 168 h [12]: 230 nM | selectivity ratio [10]: 3.67

O=C(c1ccc(C(F)(F)F)cc1O)c1[nH]c(Cl)c(Cl)c1-n1c(C(=O)c2ccc(C(F)(F)F)cc2O)cc(Cl)c1Sc1nc2ccccc2o1
IC50 (Zika virus): 360 nM | selectivity ratio [1]: 1.44 | CC50 at 168 h [13]: 1800 nM | CC50 at 72 h [2]: 920 nM | IC50 [3]: 1250 nM | selectivity ratio [5]: 3.07 | CC50 at 72 h [6]: 1560 nM | selectivity ratio [7]: 12 | selectivity ratio [14]: 5 | selectivity ratio [15]: 5 | CC50 at 168 h [8]: 1800 nM | IC50 (Dengue virus): 360 nM | IC50 (Coxsackievirus A16): 130 nM | IC50 (Enterovirus A71): 300 nM | CC50 at 72 h [9]: 1560 nM | IC50 (Coxsackievirus): 490 nM | selectivity ratio [10]: 3.18

Cn1nnnc1Sc1c(Cl)cc(C(=O)c2ccc(C(F)(F)F)cc2O)n1-c1c(C(=O)c2ccc(C(F)(F)F)cc2O)[nH]c(Cl)c1Cl
IC50 (Zika virus): 1240 nM | selectivity ratio [1]: 0.89 | CC50 at 168 h [13]: 3120 nM | IC50 [3]: 2790 nM | CC50 at 168 h [4]: 3120 nM | IC50 (Yellow fever virus): 2470 nM | CC50 at 72 h [6]: 4300 nM | selectivity ratio [7]: 4.48 | selectivity ratio [14]: 2.52 | selectivity ratio [15]: 1.79 | CC50 at 168 h [8]: 2480 nM | IC50 (Dengue virus): 1740 nM | IC50 (Coxsackievirus A16): 960 nM | CC50 at 72 h [9]: 4290 nM | IC50 (Coxsackievirus): 2750 nM | selectivity ratio [11]: 1.01 | CC50 at 168 h [12]: 2490 nM | selectivity ratio [10]: 1.56

O=C(c1ccc(C(F)(F)F)cc1O)c1[nH]c(Cl)c(Cl)c1-n1c(C(=O)c2ccc(C(F)(F)F)cc2O)cc(Cl)c1Sc1ncccn1
CC50 at 72 h [2]: 320 nM | selectivity ratio [5]: 3.56 | CC50 at 72 h [6]: 530 nM | selectivity ratio [7]: 17.8 | IC50 (Coxsackievirus A16): 30 nM | IC50 (Enterovirus A71): 90 nM | CC50 at 72 h [9]: 530 nM | IC50 (Coxsackievirus): 290 nM | selectivity ratio [10]: 1.84

C#C[C@@]1(O)[C@H](O)[C@@H](CO)O[C@H]1n1ccc2c(N)ncnc21
IC50 (Zika virus): 1620 nM | selectivity ratio [1]: > 6.47 | CC50 at 168 h [13]: > 20000 nM | CC50 at 72 h [2]: > 20000 nM | IC50 [3]: 3090 nM | CC50 at 168 h [4]: > 20000 nM | IC50 (Yellow fever virus): 1910 nM | selectivity ratio [5]: > 40 | CC50 at 72 h [6]: > 20000 nM | selectivity ratio [7]: > 28.2 | selectivity ratio [14]: > 12.3 | selectivity ratio [15]: > 3.96 | CC50 at 168 h [8]: > 20000 nM | IC50 (Dengue virus): 5050 nM | IC50 (Coxsackievirus A16): 710 nM | IC50 (Enterovirus A71): 500 nM | CC50 at 72 h [9]: > 20000 nM | IC50 (Coxsackievirus): 920 nM | selectivity ratio [11]: > 10.5 | CC50 at 168 h [12]: > 20000 nM | selectivity ratio [10]: > 21.7
